Measured values as given in patent publication US9650365B2 (UNIVERSITY OF CONNECTICUT, priority 2014, dated 2017).
Where two headings read alike, the source gives them in different places.

How the values were obtained:
[1] = target: T1, BCRP (Homo sapiens, UniProt Q9UNQ0); experiment: BCRP transporter substrate assay; format: in vitro ADME
T1 construct: expressed in transfected cells; host or cells: Madin Darby canine kidney cells (MDCK)
T1 sequence (Q9UNQ0 1-655): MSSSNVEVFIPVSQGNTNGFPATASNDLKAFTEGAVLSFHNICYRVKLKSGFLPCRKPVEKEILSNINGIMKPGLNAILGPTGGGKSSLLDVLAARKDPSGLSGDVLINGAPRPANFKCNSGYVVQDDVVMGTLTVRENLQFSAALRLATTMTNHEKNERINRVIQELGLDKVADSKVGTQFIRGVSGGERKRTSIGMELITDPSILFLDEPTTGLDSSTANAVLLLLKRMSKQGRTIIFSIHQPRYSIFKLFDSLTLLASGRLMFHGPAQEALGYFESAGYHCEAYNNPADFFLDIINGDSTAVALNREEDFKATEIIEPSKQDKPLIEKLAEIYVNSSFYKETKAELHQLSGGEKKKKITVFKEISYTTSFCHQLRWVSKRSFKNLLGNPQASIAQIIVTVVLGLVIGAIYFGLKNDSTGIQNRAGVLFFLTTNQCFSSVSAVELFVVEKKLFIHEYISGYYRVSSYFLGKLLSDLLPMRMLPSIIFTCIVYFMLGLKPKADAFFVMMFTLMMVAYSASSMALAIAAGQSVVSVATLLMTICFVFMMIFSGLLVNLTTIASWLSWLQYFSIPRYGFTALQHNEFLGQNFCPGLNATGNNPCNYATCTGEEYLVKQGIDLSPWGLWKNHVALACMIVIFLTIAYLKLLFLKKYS
From the text: (§1) Each analogue will also be evaluated in assays to develop SPR for the ability of the scaffold to penetrate the BBB and accumulate in the brain. First, a standard BBB-PAMPA assay will be used to predict the ability to passively diffuse across the BBB. In this method, an artificial membrane that has been designed to mimic the BBB is immobilized on a filter between a donor and acceptor compartment. […] For these assays, Madin Darby canine kidney cells (MDCK) are transfected with either P-gp or BCRP and grown to confluence on filter inserts in a transwell apparatus analogous to that used for the PAMPA assay. Analogue (10 μM) is added to either the donor or acceptor compartment and following a 60 min incubation period, compound concentrations in both compartments are quantified via LC/MS/MS. […] The fluorescent dye lucifer yellow will be utilized to ensure membrane integrity in the transporter assays. The BBB-PAMPA assay and both transporter assays will be performed in collaboration with the Sanford-Burnham Exploratory Pharmacology Core Facility.

[2] = target: T2, P-gp (Homo sapiens, UniProt P08183); experiment: P-gp transporter substrate assay; format: in vitro ADME
T2 construct: expressed in transfected cells; host or cells: Madin Darby canine kidney cells (MDCK)
T2 sequence (P08183 whole entry): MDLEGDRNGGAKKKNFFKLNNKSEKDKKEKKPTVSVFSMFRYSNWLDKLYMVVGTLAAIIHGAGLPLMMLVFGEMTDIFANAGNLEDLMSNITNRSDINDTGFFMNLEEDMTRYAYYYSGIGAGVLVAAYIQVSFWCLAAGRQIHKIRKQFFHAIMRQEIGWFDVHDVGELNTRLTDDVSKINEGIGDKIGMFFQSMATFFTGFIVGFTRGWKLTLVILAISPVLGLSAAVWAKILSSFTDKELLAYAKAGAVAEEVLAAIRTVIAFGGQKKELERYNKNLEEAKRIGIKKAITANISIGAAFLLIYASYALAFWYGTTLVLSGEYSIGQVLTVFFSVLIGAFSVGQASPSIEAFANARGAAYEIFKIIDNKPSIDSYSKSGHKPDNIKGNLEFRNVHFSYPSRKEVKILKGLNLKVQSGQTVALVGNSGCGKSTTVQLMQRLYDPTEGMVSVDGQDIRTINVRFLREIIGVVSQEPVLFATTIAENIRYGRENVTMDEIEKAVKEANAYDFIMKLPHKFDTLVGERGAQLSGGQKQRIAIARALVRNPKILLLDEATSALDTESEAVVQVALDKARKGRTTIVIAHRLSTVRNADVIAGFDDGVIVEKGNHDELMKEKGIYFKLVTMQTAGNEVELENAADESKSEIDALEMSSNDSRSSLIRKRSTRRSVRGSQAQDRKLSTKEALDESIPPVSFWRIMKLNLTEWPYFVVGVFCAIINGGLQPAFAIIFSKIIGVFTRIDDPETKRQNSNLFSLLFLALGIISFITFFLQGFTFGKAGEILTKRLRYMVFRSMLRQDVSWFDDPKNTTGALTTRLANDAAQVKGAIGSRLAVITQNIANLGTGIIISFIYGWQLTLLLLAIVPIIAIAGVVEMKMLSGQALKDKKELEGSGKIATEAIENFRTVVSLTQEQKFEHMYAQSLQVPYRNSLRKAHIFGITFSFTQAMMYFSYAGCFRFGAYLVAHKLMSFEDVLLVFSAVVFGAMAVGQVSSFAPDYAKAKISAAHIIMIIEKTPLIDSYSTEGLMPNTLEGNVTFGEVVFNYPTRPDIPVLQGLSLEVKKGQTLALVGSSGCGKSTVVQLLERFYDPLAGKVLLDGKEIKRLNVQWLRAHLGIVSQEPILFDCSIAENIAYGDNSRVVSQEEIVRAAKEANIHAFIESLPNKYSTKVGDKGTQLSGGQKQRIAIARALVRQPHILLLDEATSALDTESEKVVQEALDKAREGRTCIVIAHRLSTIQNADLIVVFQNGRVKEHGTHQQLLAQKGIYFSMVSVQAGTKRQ
From the text: as §1

[3] = system: Hh signaling (Gli1 mRNA) in C3H10T1/2 cells; experiment: Down-regulation of endogenous Gli1 mRNA in Hh-dependent C3H10T1/2 cells; format: cell-based, mouse; settings: Mus musculus
In short: (§2)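 Hh pathway activated in C3H10T1/2 cells with exogenous agonist (recombinant Hh ligand or small molecule) alongside inhibitor; Gli1 mRNA measured by qPCR. Concentration-dependent Gli1 reduction also assessed in murine BCC ASZ cells; values mean±SEM, ≥2 experiments in triplicate.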

[4] = BBB-PAMPA; format: in vitro ADME; settings: preliminary studies, read-out: apparent permeability (Papp)
From the text: as §1

[5] = system: Gli1 in DAOYs (cultured MB); experiment: Down-regulation of Gli1 in DAOY cells; format: cell-based; settings: Homo sapiens
From the text: Additional analogues have been synthesized and characterized in the assays described above.

[6] = system: Hh signaling (Gli1 mRNA) in ASZ cells; experiment: Down-regulation of endogenous Gli1 mRNA in ASZ cells; format: cell-based, murine; settings: Mus musculus
In short: as §2

[7] = system: HUVEC; experiment: HUVEC proliferation (MTS); format: cell-based, human; settings: Homo sapiens, HUVEC, 72 h, read-out: GI50 (μM) HUVEC, 72 h
In short: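 HUVECs seeded at 3,000 cells/well, attached overnight, then treated with varying drug concentrations. Proliferation read by MTS/PMS after 72 h.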

SMILES: CC[C@@H]([C@H](C)O)n1ncn(-c2ccc(N3CCN(c4ccc(OC[C@@H]5CO[C@@](Cn6cncn6)(c6ccc(F)cc6F)C5)cc4)CC3)cc2)c1=O [PSZ, posaconazole, reference compound]
- substrate of BCRP [1]: not a substrate
- substrate of P-gp [2]: not a substrate
- IC50 ([3]; C3H 10T1/2, 24 h, read-out: IC50 (μM) C3H10T1/2, 24 hr incubation): 0.14 ± 0.02 µM
- inhibition at 1 µM ([3]; C3H 10T1/2, read-out: % Hh inhibition): 95%
- IC50 ([3]; C3H 10T1/2, read-out: IC50 (μM) Gli1-C3Hs): 0.01 ± 0.005 µM
- IC50 ([3]; C3H 10T1/2, read-out: IC50 down-regulation of Gli1, C3H10T1/2 cells): 0.01 µM
- Papp at 30 min, 10 μM [4]: 46 ×10⁻⁶ cm/s
- IC50 [5]: 0.89 ± 0.1 µM
- IC50 ([6]; 48 h, read-out: IC50 (μM) ASZ, 48 hr incubation): 0.54 ± 0.05 µM
- IC50 ([6]; read-out: IC50 (μM) Gli1-ASZs): 0.54 ± 0.05 µM
- GI50 [7]: 1.6 ± 0.02 µM
